# PMC8512560, “Design, Synthesis, and Antipoliferative Activities of Novel Substituted Imidazole-Thione Linked Benzotriazole Derivatives” (Molecules, 2021)
# “And” between values parts separate entries of the source, which are not always exact repeats. Identical values can stand only once. Like-named read-outs stand apart in the source and are kept apart here.
# Experiments:
# [1] = test system: MCF-7 human breast cancer cell line; assay: MTT viability assay, MCF-7; type: cell-based; conditions: mean ± SD of three independent experiments, read-out: Antiproliferative Activities IC50, MCF-7
# Method: (§1) All the human tumour cell lines MCF-7, HL-60, HCT-116, and HUVEC were cultured in Dulbecco’s Modified Eagle’s Medium (DMEM) with 10% fetal bovine serum, 2 mM L-glutamine and 100 µg/mL penicillin/streptomycin. Cells were maintained at 37 °C in 5% CO2 in a humidified incubator. All cells were sub-cultured three times/week by trypsinization using TrypLE Express (1X).
# (§2) The Benzotriazole compounds were evaluated for antiproliferative effect using the MTT viability assay of various cancer cell lines (MCF-7, HCT-116 and HL-60) and the normal human umbilical vein endothelial cell line (HUVEC) to calculate the relative IC50 values for each compound. Cells were seeded in triplicate in 96-well plates at a density of 10 × 10^3 cells/mL in a total volume of 200 µL per well. 0.1% of DMSO was used as a vehicle control. After this time, they were treated with 2 µL test compound which had been pre-prepared as stock solutions in ethanol to furnish the concentration range of study, 10 nM to 100 µM, and re-incubated for a further 72 h. The culture medium was then removed, and the cells washed with 100 µL phosphate buffered saline (PBS) and 50 µL MTT added, to reach a final concentration of 1 mg/mL MTT added. Cells were incubated for 2 h in darkness at 37 °C. At this point solubilisation was begun through the addition of […] DMSO and the cells maintained at room temperature in darkness for 20 min to ensure thorough colour diffusion before reading the absorbance. Plates were incubated for 72 h at 37 °C + 5% CO2. The MTT (5 mg/mL in PBS) was added and incubated for another 4 h, and the optical density was detected with a microplate reader at 570 nm. Results were expressed as percentage viability relative to vehicle control (100%). Dose response curves were plotted and IC50 values (concentration of drug resulting in 50% reduction in cell survival) were obtained using the commercial software package Prism (GraphPad Software, Inc., La Jolla, CA, USA). All the experiments were repeated in at least three independent experiments.
# [2] = test system: HL-60 human leukemia cancer cell line; assay: MTT viability assay, HL-60; type: cell-based; conditions: mean ± SD of three independent experiments, read-out: Antiproliferative Activities IC50, HL-60
# Method: as §1, §2
# [3] = test system: HCT-116 human colon cancer cell line; assay: MTT viability assay, HCT-116; type: cell-based; conditions: mean ± SD of three independent experiments, read-out: Antiproliferative Activities IC50, HCT-116
# Method: as §1, §2
# [4] = test system: HUVEC human umbilical vein endothelial cell line; assay: MTT viability assay, normal HUVEC cells; type: cell-based; conditions: 72 h, mean ± SD of three independent experiments
# Method: as §1, §2
# [5] = test system: bovine brain tubulin; assay: Tubulin polymerization assay (turbidimetric, kit BK006); type: biochemical; conditions: read-out: Anti-Tubulin Activity IC50 ± SD (inhibition of tubulin polymerization)
# Method: The assembly of purified bovine tubulin was monitored using a kit, BK006, purchased from Cytoskeleton Inc., (Denver, CO, USA). The assay was carried out in accordance with the manufacturer’s instructions using the standard assay conditions. Briefly, purified ([…]) in a buffer consisting of 80 mM PIPES (pH 6.9), 0.5 mM EGTA, 2 mM MgCl2, 1 mM GTP and 10% glycerol was incubated at 37 °C in the presence of either vehicle (2% (v/v) ddH2O), CA-4, benzotriazole compounds. Light was scattered proportionally to the concentration of polymerized microtubules in the assay. Therefore, the tubulin assembly was monitored turbidimetrically at 340 nm in a Spectramax 340 PC spectrophotometer (Molecular Devices, Sunnyvale, CA, USA). The concentration that inhibits tubulin polymerization by 50% (IC50) was determined using area under the curve (AUC). The AUC of the untreated controls were considered as 100% polymerization. The IC50 value for each compound was computed using GraphPad Prism Software.
# [6] = test system: colchicine binding site of tubulin; assay: Colchicine site competitive binding assay ([3H]colchicine); conditions: tubulin and colchicine at 1 and 5 µM
# Method: The affinity of Benzotriazole compounds to colchicine binding site was determined using a Colchicine Site Competitive Assay kit CytoDYNAMIX Screen15 (Cytoskeleton, Inc., Denver, CO, USA) using the standard protocol of the manufacturer to determine Ki values (μM). Biotin-labelled tubulin ([…]) and the test compounds (positive control colchicine, negative control vinblastine, G-1, fluorescent G-1, or 2-ME) in a 96-well plate (final volume: 100 μL). After incubating for 2 h at 37 °C with gentle shaking, streptavidin-labelled yttrium SPA beads (80 μg in 20 μL reaction buffer, PerkinElmer, Waltham, MA) were added to each well and incubated for 30 min at 4 °C. The plates were then read on a scintillation counter (Packard Instrument, Topcount Microplate Reader) and the percentage of inhibition was calculated.
# [7] = test system: MCF-7, HL-60 and HCT-116 cancer cell lines; assay: MTT viability assay, values pooled over the cancer cell lines; type: cell-based, human; conditions: for IC50: Homo sapiens, MTT; for Fold more active than methyl-containing derivative BI2 (antiproliferative): relative to BI2, cell line not specified
# Method: as §1, §2
# [8] = HL-60 and HCT-116 only, read-out: IC50 values range versus HL-60 and HCT-116 cells
# [9] = MCF-7, HL-60 and HCT-116, read-out: IC50 values range over the three cancer cell lines
SMILES,"IC50 ([1]; Homo sapiens, MCF7, 72 h)","IC50 ([2]; Homo sapiens, HL-60, 72 h)","IC50 ([3]; Homo sapiens, HCT-116, 72 h)",IC50 [4],IC50 [5],"Colchicine Binding % ± SD (inhibition of [3H]colchicine binding), 1 µM Drug [6]","Colchicine Binding % ± SD (inhibition of [3H]colchicine binding), 5 µM Drug [6]",melting point,"IC50 [7, 8]","IC50 [7, 9]",Fold more active than methyl-containing derivative BI2 (antiproliferative) [7],IC50 ([1]; 72 h),IC50 ([2]; 72 h),IC50 ([3]; 72 h)
"NS(=O)(=O)c1ccc(-n2cc(-n3nnc4ccccc43)[nH]c2=S)cc1 [BI12, 4-(4-(1H-Benzo[d][1,2,3]Triazol-1-yl)-2-Thioxo-2,3-Dihydro-1H-Imidazol-1-yl)Benzenesulfonamide]",6.1 ± 0.75 µM,0.9 ± 0.06 µM,7.83 ± 0.5 µM,25.1 ± 1.2 µM,784 ± 20 nM,64.67 ± 2%,80.26 ± 2%,217 to 219 °C,,,,,,
"S=c1[nH]c(-n2nnc3ccccc32)cn1-c1ccc(Cl)cc1 [BI6, 4-(1H-Benzo[d][1,2,3]Triazol-1-yl)-1-(4-Chlorophenyl)-1H-Imidazole-2(3H)-Thione]",7.29 ± 0.21 µM,3.28 ± 0.22 µM,1.51 ± 0.12 µM,27.4 ± 1.31 µM,928 ± 30 nM,63.23 ± 2%,77.63 ± 2%,187 to 189 °C,1.51 to 7.38 µM,1.51 to 7.29 µM,,,,
"COc1ccc(-n2cc(-n3nnc4ccccc43)[nH]c2=S)cc1 [BI4, 4-(1H-Benzo[d][1,2,3]Triazol-1-yl)-1-(4-Methoxyphenyl)-1H-Imidazole-2(3H)-Thione]",2.29 ± 0.07 µM,22.1 ± 1.52 µM,,> 100 µM,,,,175 to 177 °C,,,2.5 fold,,,
"Oc1ccc(-n2cc(-n3nnc4ccccc43)[nH]c2=S)cc1 [BI5, 4-(1H-Benzo[d][1,2,3]Triazol-1-yl)-1-(4-Hydroxyphenyl)-1H-Imidazole-2(3H)-Thione]",4.4 µM,1.1 µM,2.1 µM,4.74 ± 0.23 µM,490 nM and 497 nM,61.78 ± 2%,81.34 ± 2%,267 to 269 °C,,1.51 to 15.5 µM,,4.45 ± 0.13 µM,1.18 ± 0.08 µM,2.15 ± 0.14 µM
"S=c1[nH]c(-n2nnc3ccccc32)cn1-c1ccccc1Cl [BI7, 4-(1H-Benzo[d][1,2,3]Triazol-1-yl)-1-(2-Chlorophenyl)-1H-Imidazole-2(3H)-Thione]",15.5 ± 0.44 µM,3.42 ± 0.23 µM,7.38 ± 0.48 µM,17.3 ± 0.35 µM,840 ± 20 nM,61.18 ± 2%,79.95 ± 2%,180 to 182 °C,1.51 to 7.38 µM,,,,,
"S=c1[nH]c(-n2nnc3ccccc32)cn1-c1ccccc1 [BI1, 4-(1H-Benzo[d][1,2,3]Triazol-1-yl)-1-Phenyl-1H-Imidazole-2(3H)-Thione]",6.4 ± 0.18 µM,5.23 ± 0.36 µM,17.5 ± 1.13 µM,63 ± 3.02 µM,,,,175 to 177 °C,,,,,,
"Fc1ccccc1N1CC(n2nnc3ccccc32)=NC1=S [BI10, 4-(1H-Benzo[d][1,2,3]Triazol-1-yl)-1-(2-Florophenyl)-1H-Imidazole-2(3H)-Thione]",,,,,,,,196 to 198 °C,,,,,,
"Cc1ccc(-n2cc(-n3nnc4ccccc43)[nH]c2=S)cc1 [BI2, 4-(1H-Benzo[d][1,2,3]Triazol-1-yl)-1-(4-Methylphenyl)-1H-Imidazole-2(3H)-Thione]",12.5 ± 0.36 µM,37.1 ± 2.54 µM,14.8 ± 0.95 µM,12.2 ± 0.58 µM,,,,178 to 180 °C,,> 10 µM,,,,
"S=c1[nH]c(-n2nnc3ccccc32)cn1-c1ccc(Br)cc1 [BI11, 4-(1H-Benzo[d][1,2,3]Triazol-1-yl)-1-(4-Bromophenyl)-1H-Imidazole-2(3H)-Thione]",38.2 ± 1.09 µM,11.5 ± 0.11 µM,17.4 ± 1.12 µM,47.8 ± 2.29 µM,,,,267 to 269 °C,,11.5 to 38.2 µM,,,,
"CCc1ccc(-n2cc(-n3nnc4ccccc43)[nH]c2=S)cc1 [BI3, 4-(1H-Benzo[d][1,2,3]Triazol-1-yl)-1-(4-Ethylphenyl)-1H-Imidazole-2(3H)-Thione]",10.6 ± 0.31 µM,3.91 ± 0.27 µM,2.75 ± 0.18 µM,> 100 µM,928 ± 40 nM,65.38 ± 2%,86.85 ± 2%,150 to 152 °C,,,3.8 fold,,,
"S=c1[nH]c(-n2nnc3ccccc32)cn1-c1cccc(Cl)c1 [BI8, 4-(1H-Benzo[d][1,2,3]Triazol-1-yl)-1-(3-Chlorophenyl)-1H-Imidazole-2(3H)-Thione]",2.66 ± 0.08 µM,5.12 ± 0.35 µM,2.1 ± 0.14 µM,39.8 ± 1.91 µM,3050 nM,59.74± 2%,82.13 ± 2%,120 to 122 °C,1.51 to 7.38 µM,1.51 to 15.5 µM,,,,
